Assay results reported in article PMC12426922, “Fingerprinting the Intestinal Transport of Low-Molecular-Mass Advanced Glycation End-Products (AGEs) Using a Caco‑2 Transwell Model” (Journal of Agricultural and Food Chemistry, 2025).
Like-named read-outs stand apart in the source and are kept apart here. Marks after values point to notes of the source that are not given here.

Tests used:
[1] = test system: differentiated Caco-2 cells; assay: WST-1 cytotoxicity assay, viability of differentiated Caco-2 cells after 2 h exposure; format: cell-based, Human
Protocol: (§1) Human colon carcinoma cells (Caco-2 cells) were obtained from the American Type Culture Collection (ATCC, Rockville, MD, USA). Caco-2 cells were cultured in complete culture medium, composed of DMEM GlutaMAX with 10% FBS (v/v), 1% P/S (v/v), and 1% NEAA (v/v) at 37 °C in a 5% (v/v) CO2 incubator. In this study, Caco-2 cells within passages 10–15 were utilized.
The WST-1 assay was used to quantify the viability of differentiated Caco-2 cells upon exposure to the individual AGEs and their equimolar mixture. To this end, Caco-2 cells were seeded in 96-well plates at 3 × 10^4 cells/well (100 μL) and incubated at 37 °C under 5% (v/v) CO2 for 20 days. The complete culture medium was refreshed on each alternate day. After full differentiation, the culture medium was removed, and the cells were washed with HBSS (containing 1% (v/v) HEPES) twice on the testing day. The same volume (100 μL) of HBSS containing a series of concentrations of the different individual test compounds or of a mixture containing all 10 AGEs was added from a 20-times-concentrated stock solution in HBSS. The test concentrations were designed based on the estimated daily intake of total AGEs (0.55–0.66 mg/(kg·day)) and high-exposure scenarios (1.4–1.8 mg/(kg day)). […] After exposure for 2 h, the absorbance at 440 and 620 nm was measured in a plate spectrophotometer (Molecular Devices, San Jose, CA, USA, Spectra Max M2). After measurement, the cell viability was calculated as cell viability (%)=(Atested 440 nm−Atested 620 nm)/(Acontrol 440 nm−Acontrol 620 nm)×100

[2] = Transport of AGE mixture across Caco-2 cell layer (transwell, apical to basolateral); format: in vitro ADME, Human; details: human; for recovery at 2 h, 100 μmol/L: read-out: percentage of the amount added at the apical side at t = 0: recovery; for Papp at 120 min, 100 μmol/L: data from 120 min
Protocol: as §1
(§2) Caco-2 cells were cultured until reaching 50%–60% confluence (undifferentiated Caco-2 cells), followed by trypsinization. Then, cells were seeded at 3 × 10^4 cells per insert in 100 μL of complete culture medium into the transwell inserts of a 24-well transwell plate, and 600 μL of complete culture medium was added to the basolateral compartments. In both the apical and basolateral compartments, the medium was renewed every other day. After 2 weeks, the transepithelial electrical resistance (TEER) value was measured using a Millicell ERS-2 Electrical Resistance System (Burlington, MA, USA) every other day. Only wells with a TEER value of >400 Ω/cm^2 were used for transport experiments. Moreover, the TEER value was measured before and after the transport experiment to ascertain that the Caco-2 cell layer remained intact during the whole transport experiment.
(§3) Transport experiments were performed after 20 days of differentiation of the Caco-2 cells. The culture medium was replaced with HBSS (containing 1% (v/v) HEPES) 30 min prior to testing in both the apical and basolateral compartments. After the 30 min preincubation, 100 μL of HBSS containing a mixture of the 10 different AGEs including CML, CEL, GALA, argpyrimidine, MG-H1, GOLD, GOLA, MOLD, pentosidine, and pyrraline, each at 100 μmol/L, was added to the apical compartment after removing the preincubation medium, while the basolateral medium was replaced by 600 μL of HBSS. […] At 120 min, a 10 μL sample from the apical side was taken for calculating apical side retention (nontransported percentage).
(§4) The apparent permeability coefficient (Papp) value was calculated according to the methodology described by Yee.
(§5) AGEs were quantified by LC-MS using a Shimadzu Nexera XR LC-40D XR UPLC system (Kyoto, Japan) equipped with a UPLC Amide column (100 mm × 2.1 mm, 1.7 μm) without derivatization coupled with a Shimadzu LCMS-8045 triple quadrupole mass spectrometer (Kyoto, Japan). The analytical column was maintained at 40 °C throughout the quantification process. A multistep binary gradient system of water containing 0.1% (v/v) formic acid (solvent A) and acetonitrile containing 0.1% (v/v) formic acid (solvent B) was used. In the whole gradient program, the total proportion of solvents A and B is always equal to 100%. The gradient program was designed as follows: 75% solvent B to 12.5% solvent B from 0 to 10 min, followed by 12.5% solvent B from 10 to 11 min. […] The initial flow rate was set to 0.30 mL/min. Subsequently, it was reduced to 0.25 mL/min at 0.3 min, which was kept until 10 min. Afterward, there was a gradual decrease, reaching 0.15 mL/min at 11 min, and this rate was maintained until 12 min. […] Between 1 and 11 min of gradient running, the line was set to MS, and for the other time periods, the line was set to waste. The retention time and mass spectrometry parameters of individual AGEs are listed in Table S1 and the chromatograms of the samples are shown in Figure S1.

Caco-2 cell layer = assay: as above; format: in vitro ADME, Human; details: mixture, each AGE 100 μmol/L, 2 h
Protocol: as §1, §2, §3, §4, §5

PepT1 = assay: as above; format: in vitro ADME, Human; details: human, mixture, each AGE 100 μmol/L; for recovery at 2 h, 100 μmol/L: Caco-2, with Gly-Sar 10 mmol/L (apical compartment), Gly-Sar 10 mmol/L, read-out: percentage of the amount added at the apical side at t = 0: recovery; for Papp at 120 min, 100 μmol/L: Caco-2, with Gly-Sar 10 mmol/L (apical), 10 mmol/L Gly-Sar apical (PepT1 inhibition), data from 120 min
Protocol: as §1, §2, §3, §4, §5

Caco-2 cell monolayer = assay: Accumulation of AGEs in the Caco-2 cell monolayer after transport experiment; format: in vitro ADME, Human; details: mixture, each AGE 100 μmol/L, 2 h
Protocol: After the transport experiment, the cell monolayer on the inset membrane was washed three times with HBSS and three times with PBS. […] The samples were subsequently centrifuged at 16 000g for 20 min at 4 °C, and the supernatant was collected for further analysis by LC-MS.
as §5, with “The” for “AGEs were quantified by LC-MS using a Shimadzu Nexera XR LC-40D XR UPLC system (Kyoto, Japan) equipped with a UPLC Amide column (100 mm × 2.1 mm, 1.7 μm) without derivatization coupled with a Shimadzu LCMS-8045 triple quadrupole mass spectrometer (Kyoto, Japan). The”, “100%.” for “100%. The gradient program was designed as follows: 75% solvent B to 12.5% solvent B from 0 to 10 min, followed by 12.5% solvent B from 10 to 11 min.”

[3] = Caco-2, 4 °C, mixture, each AGE 100 μmol/L
[4] = Caco-2, cytochalasin D pretreatment, mixture, each AGE 100 μmol/L
[5] = Caco-2, standard treatment (37 °C), equimolar mixture of 10 AGEs, each 100 μmol/L apical
[6] = Caco-2, standard treatment, mixture, each AGE 100 μmol/L
[7] = Caco-2, cytochalasin D 1 μg/mL, 30 min apical preincubation, mixture, each AGE 100 μmol/L

Compound | recovery at 2 h, 100 μmol/L [2, 3] [%] | recovery at 2 h, 100 μmol/L [2, 4] [%] | Papp at 120 min, 100 μmol/L [2, 5] [×10⁻⁶ cm/s] | recovery at 2 h, 100 μmol/L [2, 6] [%] | Papp at 120 min, 100 μmol/L [2, 7] [×10⁻⁶ cm/s] | percentage of the amount added at the apical side at t = 0: apical side (Caco-2 cell layer; 4 °C) | percentage of the amount added at the apical side at t = 0: basolateral side (Caco-2 cell layer; 4 °C) | percentage of the amount added at the apical side at t = 0: apical side (Caco-2 cell layer; Gly-Sar 10 mmol/L) | percentage of the amount added at the apical side at t = 0: basolateral side (Caco-2 cell layer; Gly-Sar 10 mmol/L) | percentage of the amount added at the apical side at t = 0: apical side (Caco-2 cell layer; cytochalasin D pretreatment) | percentage of the amount added at the apical side at t = 0: basolateral side (Caco-2 cell layer; cytochalasin D pretreatment) | percentage of the amount added at the apical side at t = 0: apical side (nontransported) (Caco-2 cell layer; standard treatment) | recovery at 2 h, 100 μmol/L (PepT1) [%] | Papp at 120 min, 100 μmol/L (PepT1) [×10⁻⁶ cm/s] | percentage of the amount added at the apical side at t = 0: accumulation (Caco-2 cell monolayer; 4 °C) | percentage of the amount added at the apical side at t = 0: accumulation (Caco-2 cell monolayer; Gly-Sar 10 mmol/L) | percentage of the amount added at the apical side at t = 0: accumulation (Caco-2 cell monolayer; cytochalasin D pretreatment) | other results
N[C@@H](CCCC[n+]1cccc2[nH]c(NCCC[C@H](N)C(=O)O)nc21)C(=O)O [pentosidine] | 83.3 ± 6.6 | 92.6 ± 14.5 | 0.083 | 96.9 ± 12.3 | 0.278 | 83.2 ± 6.7 ^a % | 0.1 ± 0.1 ^b % | 92.8 ± 10.4 ^a % | 0.1 ± 0.1 ^b % | 95.0 ± 14.2 ^a % | 0.7 ± 0.4 ^a % | 89.1 ± 12.2 ^a % | 93 ± 10.5 | 0.061 | 0.0 ± 0.0 ^a % | 0.0 ± 0.0 ^a % | 0.0 ± 0.0 ^a % | concentration that did not significantly affect cell viability ([1]; for the mixture: concentration of each AGE): ≤ 500 µM; Papp at 120 min, 100 μmol/L [2, 3]: 0.054 ×10⁻⁶ cm/s
N[C@@H](CCCCn1c(C=O)ccc1CO)C(=O)O [pyrraline] | 87.1 ± 6.1 | 90.3 ± 4.9 | 0.1 | 89 ± 5.6 | 0.334 | 86.9 ± 6.0 ^a % | 0.1 ± 0.1 ^b % | 86.4 ± 2.8 ^a % | 0.2 ± 0.1 ^b % | 89.4 ± 4.7 ^a % | 0.8 ± 0.5 ^a % | 88.6 ± 5.5 ^a % | 86.7 ± 2.8 | 0.08 | 0.0 ± 0.0 ^b % | 0.1 ± 0.0 ^a % | 0.2 ± 0.1 ^a % | effect on cell viability [1]: did not affect cell viability up to the highest concentration tested; percentage of the amount added at the apical side at t = 0: basolateral side (transported) (Caco-2 cell layer; standard treatment): 0.2 ± 0.1 ^b %; percentage of the amount added at the apical side at t = 0: accumulation (intracellular) (Caco-2 cell monolayer; standard treatment): 0.1 ± 0.1 ^a %
